Among the data in patent publication US12275733B2, “Substituted pyrido[3,4-b]indoles for the treatment of cartilage disorders” (Sanofi, priority 2016, dated 2025) are EC50 and Emax values, retold here.

In the experiment the test system is ATDC5 cells. The experiment in a line: Chondrogenesis activity assay in ATDC5 cells (collagen type II induction, immunofluorescence). In kind it is cell-based, mouse. Particulars: Mus musculus; for EC50: collagen type II induction in ATDC5 cells, concentration reaching 50% of maximum induction; for Emax: maximum percent induction of collagen type II relative to internal reference compound at 10 μM, ATDC5 cells. On the procedure: A) Chondrogenesis Activity Assay in ATDC5 Cells
The chondrogenic potential of the compounds of the invention was determined using clonal mouse chondrogenic ATDC5 cells (T. Atsumi et al., Cell Differ. Dev. 1990, 30, 109-116). ATDC5 cells are derived from mouse embryonic AT805 teratocarcinoma cells and are used frequently to study the multistep chondrogenic differentiation process from precursor cells into chondrocytes (C. Shukunami et al., Exp. Cell Res. 1998, 241, 1-11; H. Aklyami et al., J. Bone Miner. Res. 1996, 11, 22-28; H. Akiyami et al., Biochem. Biophys. Res. Commun. 1997, 235, 142-147; C. Shukunami et al., J. Cell Biol. 1996, 133, 457-468; C. Shukunami et al., J. Bone Miner. Res. 1997, 12, 1174-1188). Undifferentiated ATDC5 cells grow in vitro until confluence, showing a fibroblast-like morphology. In the presence of insulin, cells undergo transient condensation and form numerous nodular structures (cartilage nodules). The cartilagenous nature of these nodules was shown by Alcian Blue staining as evidence of the production of proteoglycan (aggrecan) and collagen type II expression (by expression analysis), both molecular markers of chondrocytes (C. Shukunami et al., J. Cell Biol. 1996, 133, 457-468).
Chondrogenic differentiation of ATDC5 cells into chondrocytes by the compounds of the invention was determined by measuring the induction of type II collagen protein as a marker of chondrocytes, a structural component of the extracellular matrix which constitutes more than 80% of cartilage mass (D. R. Eyre, Clin. Orthop. Relat. Res. 2004, 427 Suppl, S118-S122). ATDC5 cells were obtained from RIKEN and cultured as monolayer in basal culture medium (Dulbecco's Modified Eagle Medium/Nutrient Mixture F-12 (DMEM/F12, Invitrogen, #31331-093) supplemented with 10 μg/ml Transferrin (Roche, #10652 202001), 3×10E−8 M sodium seienite (Sigma, #S-5261) and 5% Fetal Calf Serum (FCS Gold, PAA, #A15-251)), at 37° C., and 5% CO2 in plastic flasks of 75 cm^2 or 300 cm^2 subconfluently for propagation. ATDC5 cells were harvested and resuspended in differentiation culture medium that consisted of basal culture medium complemented with 10 μg/ml insulin (Sigma, #19278), to initiate chondrogenic differentiation. For studying the effect of test compounds, the ATDC5 cells were plated in 96-well plates (3.0×10E4 cells per well in 200 μl of differentiation culture medium). Test compounds dissolved in DMSO were added to yield increasing compound concentrations, typically from 40 nM to 10 μM, and a final DMSO concentration of 0.1%. On each 96-well plate, control wells containing no test compound but the same concentration of DMSO, i.e. untreated cells, were included and used as reference for the determination of the effect of the test compounds on the cells, and wells containing an internal reference compound at a concentration of 10 μM were included and used as positive control and for standardizing the results. Cells in the wells were incubated for 4 days at 37° C., and 5% CO2, followed by quantification of intracellular collagen type II.
Quantification of collagen type II in the ATDC5-cells was done by immunofluorescence staining of collagen type II, and fluorescence intensity was measured using a cellular high content imaging system (ImageXpress, Molecular Device). For immunofluorescence staining of intracellular collagen, medium was removed after compound incubation and cells were fixed with 200 μl/well methanol/water (95%/5%). Cells were permeabilized in 200 μl/well phosphate-buffered saline (PBS) containing 0.2% Triton X100 for 15 min and, after removal of the solution, blocked for 30 min with 200 μl/well PBS/0.2% Triton X100 containing 1% bovine serum albumin (BSA) to avoid unspecific binding. After the blocking step, the solution was removed and collagen type II staining solution was added. […]

Consider `FC(F)(F)Cn1c2cnccc2c2cc(Cl)cc(-c3cnc(C4CC4)s3)c21` [Example 174, 6-Chloro-8-(2-cyclopropyl-thiazol-5-yl)-9-(2,2,2-trifluoro-ethyl)-9H-pyrido[3,4-b]indole], for which the EC50 amounted to 7300 nM and the Emax fell in the range of 50 to 80%.

`COc1ccc(-c2cc(Cl)cc3c4ccncc4n(CC(F)(F)F)c23)cn1` [Example 62, 6-Chloro-8-(6-methoxy-pyridin-3-yl)-9-(2,2,2-trifluoro-ethyl)-9H-pyrido[3,4-b]indole] displayed an EC50 of 1200 nM and an Emax of over 80%.

Compound `Cc1nccc2c1[nH]c1c(-c3ccc(OCc4ccccc4)cc3)cc(Cl)cc12` [Example 177, 8-(4-Benzyloxy-phenyl)-6-chloro-1-methyl-9H-pyrido[3,4-b]indole] came in with an EC50 of over 10000 nM and a maximum response (Emax) of 20 to 50%.

Compound `COc1ccc(-c2cc(Cl)cc3c2[nH]c2c(C)nccc23)c(Cl)n1` [Example 103, 6-Chloro-8-(2-chloro-6-methoxy-pyridin-3-yl)-1-methyl-9H-pyrido[3,4-b]indole] registered an EC50 of 1900 nM and an Emax of over 80%.

For `FC(F)(F)Cn1c2cnccc2c2cc(Cl)cc(-c3cnc(-c4ccccc4)s3)c21` [Example 170, 6-Chloro-8-(2-phenyl-thiazol-5-yl)-9-(2,2,2-trifluoro-ethyl)-9H-pyrido[3,4-b]indole], the EC50 was over 10000 nM and the Emax is 20 to 50%.

In the case of `CCOc1ccc(-c2cc(Cl)cc3c2[nH]c2c(C)nccc23)cc1` [Example 192, 6-Chloro-8-(4-ethoxy-phenyl)-1-methyl-9H-pyrido[3,4-b]indole], the response was half-maximal at 640 nM (EC50) and the Emax was over 80%.

With `CCn1c2c(-c3ccc(OCC4(C)COC4)cc3)cc(Br)cc2c2ccnc(C)c21` [Example 257, 6-Bromo-9-ethyl-1-methyl-8-[4-(3-methyl-oxetan-3-ylmethoxy)-phenyl]-9H-pyrido[3,4-b]indole], a half-maximal effect (EC50) was put at 310 nM and the Emax was over 80%.

`Cc1nccc2c1[nH]c1c(-c3ccc(CN4CCOCC4)cc3)cc(Cl)cc12` [Example 224, 6-Chloro-1-methyl-8-(4-morpholin-4-ylmethyl-phenyl)-9H-pyrido[3,4-b]indole]: a half-maximal response (EC50) required 310 nM and the Emax was over 80%.

For `Cc1nccc2c1[nH]c1c(-c3ccc(OCCn4cc(Br)cn4)cc3)cc(Cl)cc12` [Example 42, 8-(4-[2-(4-Bromo-pyrazol-1-yl)-ethoxy]-phenyl)-6-chloro-1-methyl-9H-pyrido[3,4-b]indole], the EC50 is 510 nM and the Emax lay in the range of 50 to 80%.

Regarding `COc1ccc(-c2cc(Cl)cc3c2[nH]c2c(C)nccc23)cc1OC` [Example 172, 6-Chloro-8-(3,4-dimethoxy-phenyl)-1-methyl-9H-pyrido[3,4-b]indole], the EC50 was over 10000 nM and the Emax is 20 to 50%.

The compound `Cc1cc(-c2ccc(Cl)nc2Cl)c2[nH]c3c(C)nccc3c2c1` [Example 108, 8-(2,6-Dichloro-pyridin-3-yl)-1,6-dimethyl-9H-pyrido[3,4-b]indole] displayed an EC50 of 1400 nM and an Emax of over 80%.

As for `Cc1nccc2c1[nH]c1c(-c3ccc(C#N)nc3)cc(Cl)cc12` [Example 100, 5-(6-Chloro-1-methyl-9H-pyrido[3,4-b]indol-8-yl)-pyridine-2-carbonitrile], the EC50 turned out to be 1000 nM and the Emax was under 20%.

`FC(F)(F)Cn1c2cnccc2c2cc(Cl)cc(-c3ccc(Cl)cc3)c21` [Example 129, 6-Chloro-8-(4-chloro-phenyl)-9-(2,2,2-trifluoro-ethyl)-9H-pyrido[3,4-b]indole]: the midpoint of the response, the EC50, lay at 860 nM and the Emax is over 80%.

In turn, `COc1cc(-c2cc(Cl)cc3c2[nH]c2c(C)nccc23)ccc1OCc1ccccn1` [Example 221, 6-Chloro-8-[3-methoxy-4-(pyridin-2-ylmethoxy)-phenyl]-1-methyl-9H-pyrido[3,4-b]indole] yielded an EC50 of over 3300 nM and an Emax of 20 to 50%.

`CCn1c2c(-c3cnn(CCOC(C)=O)c3)cc(Cl)cc2c2ccnc(C)c21` [Example 263, Acetic acid 2-[4-(6-chloro-9-ethyl-1-methyl-9H-pyrido[3,4-b]indol-8-yl)-pyrazol-1-yl]-ethyl ester]: the EC50 was 550 nM and the Emax was over 80%.

Consider `Cc1nccc2c1[nH]c1c(-c3ccc(C(O)c4ccccn4)cc3)cc(Cl)cc12` (stereo not shown) [Example 32, [4-(6-Chloro-1-methyl-9H-pyrido[3,4-b]indol-8-yl)-phenyl]-pyridin-2-yl-methanol], for which a half-maximal response (EC50) required 370 nM and the Emax lay within 50 to 80%.

Compound `COc1ccc(-c2cc(C(=O)O)cc3c2[nH]c2c(C)nccc23)cc1` [Example 35, 8-(4-Methoxy-phenyl)-1-methyl-9H-pyrido[3,4-b]indole-6-carboxylic acid] showed a concentration giving a half-maximal response (EC50) of 3100 nM and an Emax of over 80%.

Consider `Cc1nccc2c3cc(Cl)cc(-c4cnc(N(C)C)nc4)c3n(CC3CC3)c12` [Example 286, [5-(6-Chloro-9-cyclopropylmethyl-1-methyl-9H-pyrido[3,4-b]indol-8-yl)-pyrimidin-2-yl]-dimethyl-amine], for which the EC50 was determined as 41 nM and the Emax was under 20%.

On to `CCn1c2c(-c3cccc(CN4CCOCC4)c3)cc(Cl)cc2c2ccnc(C)c21` [Example 254, 6-Chloro-9-ethyl-1-methyl-8-(3-morpholin-4-ylmethyl-phenyl)-9H-pyrido[3,4-b]indole], for which the EC50 was over 3300 nM and the Emax is under 20%.

`CCn1c2cnccc2c2cc(Cl)cc(-c3ccc(C)nc3)c21` [Example 67, 6-Chloro-9-ethyl-8-(6-methyl-pyridin-3-yl)-9H-pyrido[3,4-b]indole] registered an EC50 of 740 nM and a maximal effect (Emax) of 20 to 50%.

For `Cc1nccc2c1[nH]c1c(-c3ccc(OCc4cccc(F)n4)cc3)cc(Cl)cc12` [Example 226, 6-Chloro-8-[4-(6-fluoro-pyridin-2-ylmethoxy)-phenyl]-1-methyl-9H-pyrido[3,4-b]indole], the concentration giving a half-maximal response (EC50) was determined as 190 nM and the maximal effect (Emax) is 50 to 80%.

The compound `FC(F)(F)Cn1c2cnccc2c2cc(Cl)cc(-c3ccc(N4CCCCC4)nc3)c21` [Example 89, 6-Chloro-8-(3,4,5,6-tetrahydro-2H-[1,2′]bipyridinyl-5′-yl)-9-(2,2,2-trifluoro-ethyl)-9H-pyrido[3,4-b]indole] gave an EC50 of over 10000 nM and a maximal effect (Emax) of over 80%.

`CCn1c2c(-c3ccc(C(O)c4ccccc4)cc3)cc(Cl)cc2c2ccnc(C)c21` (stereo not shown) [Example 238, [4-(6-Chloro-9-ethyl-1-methyl-9H-pyrido[3,4-b]indol-8-yl)-phenyl]-phenyl-methanol] came in with an EC50 of 1400 nM and an Emax of over 80%.

For `CCn1c2c(-c3cnc4[nH]ccc4c3)cc(Cl)cc2c2ccnc(C)c21` [Example 92, 6-Chloro-9-ethyl-1-methyl-8-(1H-pyrrolo[2,3-b]pyridin-5-yl)-9H-pyrido[3,4-b]indole], it took 2500 nM to reach a half-maximal effect (EC50) and the Emax was over 80%.

Compound `Cc1cc(-c2cc(Cl)cc3c4ccnc(C)c4n(CC4CC4)c23)cnc1C#N` [Example 48, 5-(6-Chloro-9-cyclopropylmethyl-1-methyl-9H-pyrido[3,4-b]indol-8-yl)-3-methyl-pyridine-2-carbonitrile] had a 50% effective concentration (EC50) of 41 nM and an Emax of under 20%.

The compound `Clc1cc(-c2cncnc2)c2[nH]c3cnccc3c2c1` [Example 141, 6-Chloro-8-pyrimidin-5-yl-9H-pyrido[3,4-b]indole] returned an EC50 of over 10000 nM and an Emax of under 20%.

A word on the EC50: it is the concentration at which the effect is half-maximal. One may read the Emax as the size of the effect at its maximum, as opposed to the concentration needed.
